Patent US20110020494A1, “GROWTH MEDIUM FOR LACTIC ACID BACTERIA” (priority 2007, published 2011)

Test system: mesophilic culture of Lactococcus
Test: Growth of Lactococcus with formate and purine supplementation: pH of inoculated milk over time
Assay type: cell-based
Conditions: milk 1% fat, 32° C., inoculation 0.022%, IMP 10 ppm, NaF 5 ppm
Protocol: In these experiments, the growth of Lactococcus in the presence of supplemented formate and purine was investigated. Equal amounts of milk (pasteurized milk w/1% fat) were added to four 1 liter Pyrex bottles. The bottles were placed in the water bath at 32° C.
All bottles were inoculated with a mesophilic culture of Lactococcus (0.022%). When the milk reached 32° C., three of the four bottles were supplemented with Na formate and/or disodium-5′-inosinate (IMP), as shown below.
The initial pH of the milk was recorded. The pH in the bottles was measured every hour for the first two hours and then every half hour until a pH of around 4.6 was reached.
The pH of each of the bottles, as a function of time, is shown below, and graphed in FIG. 1.

Molecule `O=C[O-].[Na+]` [NaF, sodium formate] has a pH (time 0 hours (initial pH)) of 6.54, a pH (time 1 hour) of 6.48 and a pH (time 2 hours) of 6.29. The pH (time 2.6 hours) was 6.03, the pH (time 3 hours) was 5.79 and the pH (time 3.5 hours) was 5.51. For the same molecule, the pH (time 4 hours) was 5.26, the pH (time 5.1 hours) was 4.66 and the pH (time 5.6 hours) was 4.54.
For disodium-5′-inosinate [IMP], the pH (time 0 hours (initial pH)) was 6.54, the pH (time 1 hour) was 6.48 and the pH (time 2 hours) was 6.27. The pH (time 2.6 hours) was 5.98, the pH (time 3 hours) was 5.73 and the pH (time 3.5 hours) was 5.42. It also gave a pH (time 4 hours) of 5.17, a pH (time 5.1 hours) of 4.6 and a pH (time 5.6 hours) of 4.5.
